What all share (experiment): inhibition of tumour cell growth, NCI panel, 48 h
The test system of experiment [1] is RPMI-8226 leukemia.
Experiment [2] relates to RXF 393 renal.
The subject of experiment [3] is HCC-2998 colon.
Experiment [4] relates to A549 NSCLC.
The subject of experiment [5] is M14 melanoma.
The test system of experiment [6] is PC-3 prostate.
The subject of experiment [7] is K-562 leukemia.
Experiment [8] has as its system ACHN renal.
For experiment [9], the system named is BT-549 breast.
The subject of experiment [10] is CCRF-CEM leukemia.

Each structure is given as a SMILES string.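 The compound was tested at five concentrations on cells cultured in 96-well plates, with a 48-hour exposure period. The concentration for 50% growth inhibition is given as GI50. At the TGI there is no net growth.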

Regarding `COc1ccc2c(c1)[C@@]1(C)CCC3c4ccc(O)cc4CCC3C1C2` (stereo partly drawn), the GI50 is 14.8 µM in experiment [1]; 10.5 µM in experiment [2]; 18 µM in experiment [3]; 12.6 µM in experiment [4]; 18.9 µM in experiment [5]; 20.1 µM in experiment [6]. Besides, the GI50 is 14.8 µM in experiment [7], 15.9 µM in experiment [8], 22.4 µM in [9] and 12.8 µM in [10]. Besides, the TGI in experiment [1] was found to be 39.8 µM; in experiment [2] it was 34.5 µM; in [3], 32.3 µM; in [4], 32.2 µM; in experiment [5], 33.5 µM; in experiment [6] it was 42 µM. In addition, the TGI in [7] stood at 48.4 µM; in experiment [8] it was 29.8 µM; in [9], 40.7 µM; in experiment [10] it was 45.8 µM.

Turning to `COc1ccc(-c2cc(-c3nnc(SCC(=O)Nc4ccc(C(C)=O)cc4)o3)c3ccccc3n2)cc1`, the GI50 is above 100 µM in experiment [1]; 18.1 µM in [2]; above 100 µM in [3]; above 100 µM in [4]; above 100 µM in experiment [5]; above 100 µM in [6]. Also, the GI50 is above 100 µM in experiment [7], 5.64 µM in [8], 8.77 µM in [9] and above 100 µM in experiment [10]. For the same compound, the TGI in experiment [1] was above 100 µM; in [2] it was 57.5 µM; in experiment [3], above 100 µM; in [4] it was above 100 µM; in [5], above 100 µM; in experiment [6] it was above 100 µM. The TGI in [7] is above 100 µM; in experiment [8], 31.7 µM; in experiment [9], above 100 µM; in experiment [10] it was above 100 µM.

Consider `CC[C@@]1(O)C(=O)OCc2c1cc1n(c2=O)Cc2cc3c(NC(=O)CN)cccc3nc2-1`, for which the TGI is 28.6 µM in experiment [1]; 0.354 µM in [2]; 9.05 µM in [3]; above 48.5 µM in [4]; 2.8 µM in experiment [5]; above 100 µM in experiment [6]. The TGI in experiment [7] was above 100 µM; in [8], 1.02 µM; in experiment [9], above 100 µM; in experiment [10] it was 2.33 µM.

`Cc1ccc(C[P+](c2ccccc2)(c2ccccc2)c2ccccc2)cc1`: the GI50 in experiment [1] was 0.201 µM; in experiment [2] it was 3.24 µM; in experiment [3] it was 0.441 µM; in experiment [4], 0.684 µM; in experiment [5], 1.32 µM; in experiment [6], 0.997 µM. In addition, the GI50 was 0.574 µM in [7], 5.94 µM in experiment [8], 0.671 µM in experiment [9] and 1.31 µM in [10]. Also, the TGI in experiment [1] is 18 µM; in experiment [2] it was 20.3 µM; in experiment [3], 6.41 µM; in experiment [5], 11.1 µM; in experiment [6], above 100 µM; in [7], above 24.6 µM. In addition, the TGI in [8] was above 74.9 µM; in experiment [9], 14.3 µM.

As for `COc1cc2ncn(-c3cc(OCc4ccccc4S(C)(=O)=O)c(C#N)s3)c2cc1OC`, the GI50 was above 25 µM in [1]; above 14.9 µM in experiment [2]; above 25 µM in [3]; above 25 µM in experiment [4]; above 25 µM in experiment [5]; above 25 µM in experiment [6]. For the same compound, the GI50 in experiment [7], in [8], in [9] and in experiment [10] was above 25 µM each time. The TGI in experiment [1], in experiment [2], in experiment [3], in experiment [4], in experiment [5] and in experiment [6] was above 25 µM each time. Also, the TGI in experiment [7], in experiment [8], in experiment [9] and in experiment [10] was above 25 µM each time.

With `NC1=C(Cl)C(=O)c2ccccc2C1=O`, the TGI in experiment [1] stood at 43.6 µM; in [2] it was 18.8 µM; in experiment [3] it was 24.4 µM; in [4], 8.44 µM; in experiment [5] it was 3.26 µM; in [6], 6 µM. Besides, the TGI in experiment [7] stood at 39 µM; in experiment [8], 22.7 µM; in experiment [9] it was 4.19 µM; in [10], 32.5 µM.

As to `CC1(C)N[P+]2(Nc3ccccc3O2)OC1=O` (stereo not drawn), the TGI in [1], in experiment [2], in experiment [3], in experiment [4], in experiment [5] and in experiment [6] was above 100 µM in each case. Further, the TGI in [7], in [8], in experiment [9] and in experiment [10] was above 100 µM in each case.

As to `COC(=O)[C@]12CC=C3O[C@@H]4OC5(CCCCC5)O[C@@H]4[C@H]3C1C(=O)C=CC2=O` (stereo partly drawn), the TGI in [1] came out at 21.6 µM; in experiment [2], 25.8 µM; in [3], 31.4 µM; in experiment [4], 55 µM; in experiment [5], 32 µM; in experiment [6], 52.3 µM. The TGI in [7] was found to be 65 µM; in experiment [8], 32.6 µM; in [9], 34.5 µM; in [10] it was 14.3 µM.

For the compound `O=C1OCC2=C1C(c1cccc(C(F)(F)F)c1)c1cc3c(cc1N2CCO)CCC3` (stereo not drawn), the GI50 is 0.239 µM in experiment [1]; 0.145 µM in experiment [2]; 0.177 µM in experiment [3]; 0.201 µM in experiment [4]; 0.159 µM in experiment [5]; 0.194 µM in experiment [6]. Moreover, the GI50 is 0.174 µM in experiment [7], 0.441 µM in [8], 0.219 µM in [9] and 0.217 µM in [10]. Besides, the TGI in experiment [1] came to 12.8 µM; in [2], 8.38 µM; in experiment [3], 6.76 µM; in [4] it was 8.04 µM; in experiment [5], 6.2 µM; in [6] it was 7.56 µM. The TGI in experiment [7] turned out to be 28.1 µM; in experiment [8], 9.23 µM; in experiment [9], 5.32 µM; in experiment [10], 45.4 µM.
